# According to the supplement of paper PMC10307832:
# Columns and labels:
# Experiment in all cases: relative viability (nuclei count vs DMSO), 5 days (fraction); higher = more cells survive
# [1] = compound: C[C@]1(O)C[C@@H](c2nc(-c3ccc4ccc(-c5ccccc5)nc4c3)c3c(N)nccn32)C1 [Linsitinib] + Nc1ncn([C@H]2C[C@H](O)[C@@H](CO)O2)c(=O)n1 [Decitabine] (partner 2 µM)
# Summary of the method: (§1)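 For relative viability, nuclei counts in treated wells were divided by those in vehicle wells. Lung cancer cell lines had been pin-tool dosed in 1536-well plates the day after seeding and cultured for 5 days, then fixed and stained in one step (final 0.05% Triton X-100, 1% formaldehyde, 1 ug/ml Hoechst) and imaged at 4×. Doses were one drug alone or a fixed anchor-drug dose plus five library-drug doses (not always all listed) in √10 steps, and values are duplicate-plate medians.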
# [2] = compound: Cc1ccc(C(=O)N(CCCN)[C@@H](c2nc3cc(Cl)ccc3c(=O)n2Cc2ccccc2)C(C)C)cc1 [Ispinesib] + COc1cc2c(Oc3ccc(NC(=O)C4(C(=O)Nc5ccc(F)cc5)CC4)cc3F)ccnc2cc1OCCCN1CCOCC1 [Foretinib] (partner 0.25 µM)
# Summary of the method: as §1
# [3] = compound: Cc1ccc(C(=O)N(CCCN)[C@@H](c2nc3cc(Cl)ccc3c(=O)n2Cc2ccccc2)C(C)C)cc1 [Ispinesib] + Cc1nc(NC(=O)N2CCC[C@H]2C(N)=O)sc1-c1ccnc(C(C)(C)C(F)(F)F)c1 [Alpelisib] (partner 2 µM)
# Summary of the method: as §1
# [4] = compound: C[C@]1(O)C[C@@H](c2nc(-c3ccc4ccc(-c5ccccc5)nc4c3)c3c(N)nccn32)C1 [Linsitinib] + CC1(C)CCC(c2ccc(Cl)cc2)=C(CN2CCN(c3ccc(C(=O)NS(=O)(=O)c4ccc(N[C@H](CCN5CCOCC5)CSc5ccccc5)c(S(=O)(=O)C(F)(F)F)c4)cc3)CC2)C1 [Navitoclax] (partner 0.5 µM)
# Summary of the method: as §1
cell line,measurement,setting,value
UMC-11,relative viability,[1]; first compound 0.01 µM,0.627
same,relative viability,[1]; first compound 0.03162 µM,0.458
same,relative viability,[1]; first compound 0.1 µM,0.642
same,relative viability,[1]; first compound 0.3162 µM,0.423
same,relative viability,[1]; first compound 1 µM,0.527
same,relative viability,[2]; first compound 0.001 µM,1.03
same,relative viability,[2]; first compound 0.003162 µM,0.995
same,relative viability,[2]; first compound 0.01 µM,0.889
same,relative viability,[2]; first compound 0.03162 µM,0.322
same,relative viability,[2]; first compound 0.1 µM,0.233
same,relative viability,[3]; first compound 0.001 µM,0.944
same,relative viability,[3]; first compound 0.003162 µM,1.09
same,relative viability,[3]; first compound 0.01 µM,0.99
same,relative viability,[3]; first compound 0.03162 µM,0.351
same,relative viability,[3]; first compound 0.1 µM,0.282
same,relative viability,[4]; first compound 0.01 µM,0.317
same,relative viability,[4]; first compound 0.03162 µM,0.301
same,relative viability,[4]; first compound 0.1 µM,0.315
same,relative viability,[4]; first compound 1 µM,0.302
